# Assay results published in ChEMBL document CHEMBL4373739, “6-Cinnamoyl-4-arylaminothienopyrimidines as highly potent cytotoxic agents: Design, synthesis and structure-activity relationship studies” (Eur J Med Chem, 2020).
# The source made the active and inactive calls. No cut-off for these calls is given here.
# System: HeLa
# Assay: Induction of apoptosis in human HeLa cells assessed as early apoptotic cells at IC50 concentration after 48 hrs by AnnexinV-APC/propidium iodide staining based FACScalibur flow cytometry analysis (reference value: 3.23 %)
# Type: functional
# Details: not given
row,SMILES,Activity
1,COc1ccc(/C=C/C(=O)Nc2cc3c(Nc4ccc(Cl)c(Cl)c4)ncnc3s2)cc1,15.7%
2,O=C(/C=C/c1ccccc1)Nc1cc2c(Nc3cc(Cl)cc(Cl)c3)ncnc2s1,42.8%

# System: HeLa
# Assay: Induction of apoptosis in human HeLa cells assessed as late apoptotic cells after 48 hrs by AnnexinV-APC/propidium iodide staining based FACScalibur flow cytometry analysis (reference value: 4.30 %)
# Type: functional
# Details: not given
row,SMILES,Activity
1,C#Cc1cccc(Nc2ncnc3cc(OCCOC)c(OCCOC)cc23)c1 [ERLOTINIB],15%

# System: MDA-MB-231
# Assay: Antiproliferative activity against human MDA-MB-231 cells incubated for 48 hrs by MTT assay
# Type: functional, cell-based
# Details: MDA-MB-231, 48 h
row,SMILES,IC50
1,C#Cc1cccc(Nc2ncnc3cc(NC(=O)/C=C/c4ccccc4)sc23)c1,2.34 µM
2,O=C(/C=C/c1ccccc1)Nc1cc2ncnc(Nc3ccc(F)c(Cl)c3)c2s1,2.1 µM
3,O=C(/C=C/c1ccccc1)Nc1cc2ncnc(Nc3ccc(Cl)c(Cl)c3)c2s1,2.41 µM
4,O=C(/C=C/c1ccc(O)cc1)Nc1cc2c(Nc3ccc(Cl)c(Cl)c3)ncnc2s1,1.98 µM
5,C#Cc1cccc(Nc2ncnc3cc(OCCOC)c(OCCOC)cc23)c1 [ERLOTINIB],8.3 µM
6,COc1ccc(/C=C/C(=O)Nc2cc3c(Nc4ccc(Cl)c(Cl)c4)ncnc3s2)cc1,16.6 µM
7,O=C(/C=C/c1ccccc1)Nc1cc2c(Nc3cc(Cl)cc(Cl)c3)ncnc2s1,11.5 µM

# System: HepG2
# Assay: Antiproliferative activity against human HepG2 cells incubated for 48 hrs by MTT assay
# Type: functional, cell-based
# Details: HepG2, 48 h
row,SMILES,IC50
1,C#Cc1cccc(Nc2ncnc3cc(NC(=O)/C=C/c4ccccc4)sc23)c1,15.4 µM
2,O=C(/C=C/c1ccccc1)Nc1cc2ncnc(Nc3ccc(F)c(Cl)c3)c2s1,10.6 µM
3,O=C(/C=C/c1ccccc1)Nc1cc2ncnc(Nc3ccc(Cl)c(Cl)c3)c2s1,13.4 µM
4,O=C(/C=C/c1ccc(O)cc1)Nc1cc2c(Nc3ccc(Cl)c(Cl)c3)ncnc2s1,42.9 µM
5,C#Cc1cccc(Nc2ncnc3cc(OCCOC)c(OCCOC)cc23)c1 [ERLOTINIB],28.8 µM
6,COc1ccc(/C=C/C(=O)Nc2cc3c(Nc4ccc(Cl)c(Cl)c4)ncnc3s2)cc1,30.6 µM
7,O=C(/C=C/c1ccccc1)Nc1cc2c(Nc3cc(Cl)cc(Cl)c3)ncnc2s1,21.8 µM

# System: HCT-116
# Assay: Antiproliferative activity against human HCT116 cells incubated for 48 hrs by MTT assay
# Type: functional, cell-based
# Details: HCT-116, 48 h
row,SMILES,IC50
1,C#Cc1cccc(Nc2ncnc3cc(OCCOC)c(OCCOC)cc23)c1 [ERLOTINIB],23.3 µM
2,COc1ccc(/C=C/C(=O)Nc2cc3c(Nc4ccc(Cl)c(Cl)c4)ncnc3s2)cc1,7.41 µM
3,O=C(/C=C/c1ccccc1)Nc1cc2c(Nc3cc(Cl)cc(Cl)c3)ncnc2s1,3.83 µM

# System: SK-BR-3
# Assay: Antiproliferative activity against human SKBR3 cells incubated for 48 hrs by MTT assay
# Type: functional, cell-based
# Details: SK-BR-3, 48 h
row,SMILES,IC50
1,C#Cc1cccc(Nc2ncnc3cc(OCCOC)c(OCCOC)cc23)c1 [ERLOTINIB],49.3 µM
2,COc1ccc(/C=C/C(=O)Nc2cc3c(Nc4ccc(Cl)c(Cl)c4)ncnc3s2)cc1,11.9 µM
3,O=C(/C=C/c1ccccc1)Nc1cc2c(Nc3cc(Cl)cc(Cl)c3)ncnc2s1,6.46 µM

# System: SW480
# Assay: Antiproliferative activity against human SW480 cells incubated for 48 hrs by MTT assay
# Type: functional, cell-based
# Details: SW480, 48 h
row,SMILES,IC50
1,C#Cc1cccc(Nc2ncnc3cc(OCCOC)c(OCCOC)cc23)c1 [ERLOTINIB],23 µM
2,COc1ccc(/C=C/C(=O)Nc2cc3c(Nc4ccc(Cl)c(Cl)c4)ncnc3s2)cc1,5.75 µM
3,O=C(/C=C/c1ccccc1)Nc1cc2c(Nc3cc(Cl)cc(Cl)c3)ncnc2s1,4.93 µM

# System: SK-OV-3
# Assay: Antiproliferative activity against human SKOV3 cells incubated for 48 hrs by MTT assay
# Type: functional, cell-based
# Details: SK-OV-3, 48 h
row,SMILES,IC50
1,C#Cc1cccc(Nc2ncnc3cc(OCCOC)c(OCCOC)cc23)c1 [ERLOTINIB],61.8 µM
2,COc1ccc(/C=C/C(=O)Nc2cc3c(Nc4ccc(Cl)c(Cl)c4)ncnc3s2)cc1,10.7 µM
3,O=C(/C=C/c1ccccc1)Nc1cc2c(Nc3cc(Cl)cc(Cl)c3)ncnc2s1,10.9 µM

# System: HeLa
# Assay: Antiproliferative activity against human HeLa cells incubated for 48 hrs by MTT assay
# Type: functional, cell-based
# Details: not given
row,SMILES,IC50
1,C#Cc1cccc(Nc2ncnc3cc(NC(=O)/C=C/c4ccccc4)sc23)c1,20.5 µM
2,O=C(/C=C/c1ccccc1)Nc1cc2ncnc(Nc3ccc(F)c(Cl)c3)c2s1,2.81 µM
3,O=C(/C=C/c1ccccc1)Nc1cc2ncnc(Nc3ccc(Cl)c(Cl)c3)c2s1,10.7 µM
4,O=C(/C=C/c1ccc(O)cc1)Nc1cc2c(Nc3ccc(Cl)c(Cl)c3)ncnc2s1,24.8 µM
5,C#Cc1cccc(Nc2ncnc3cc(OCCOC)c(OCCOC)cc23)c1 [ERLOTINIB],7.48 µM
6,COc1ccc(/C=C/C(=O)Nc2cc3c(Nc4ccc(Cl)c(Cl)c4)ncnc3s2)cc1,0.033 µM
7,O=C(/C=C/c1ccccc1)Nc1cc2c(Nc3cc(Cl)cc(Cl)c3)ncnc2s1,0.004 µM

# System: U-87 MG
# Assay: Antiproliferative activity against human U87 cells incubated for 48 hrs by MTT assay
# Type: functional, cell-based, U-87MG ATCC
# Details: not given
row,SMILES,IC50
1,C#Cc1cccc(Nc2ncnc3cc(OCCOC)c(OCCOC)cc23)c1 [ERLOTINIB],31.9 µM
2,COc1ccc(/C=C/C(=O)Nc2cc3c(Nc4ccc(Cl)c(Cl)c4)ncnc3s2)cc1,4.4 µM
3,O=C(/C=C/c1ccccc1)Nc1cc2c(Nc3cc(Cl)cc(Cl)c3)ncnc2s1,4.49 µM

# System: HeLa
# Assay: Induction of cell cycle arrest in human HeLa cells assessed as increase in cell population at sub-G1 phase at IC50 concentration after 48 hrs by RNase/propidium iodide staining based flow cytometry analysis
# Type: functional
# Details: not given
row,SMILES,Activity
1,COc1ccc(/C=C/C(=O)Nc2cc3c(Nc4ccc(Cl)c(Cl)c4)ncnc3s2)cc1,Active
2,O=C(/C=C/c1ccccc1)Nc1cc2c(Nc3cc(Cl)cc(Cl)c3)ncnc2s1,Active

# System: MCF7
# Assay: Antiproliferative activity against human MCF7 cells incubated for 48 hrs by MTT assay
# Type: functional, cell-based
# Details: MCF7, 48 h
row,SMILES,IC50
1,C#Cc1cccc(Nc2ncnc3cc(NC(=O)/C=C/c4ccccc4)sc23)c1,75.6 µM
2,O=C(/C=C/c1ccccc1)Nc1cc2ncnc(Nc3ccc(F)c(Cl)c3)c2s1,30.9 µM
3,O=C(/C=C/c1ccccc1)Nc1cc2ncnc(Nc3ccc(Cl)c(Cl)c3)c2s1,> 100 µM
4,O=C(/C=C/c1ccc(O)cc1)Nc1cc2c(Nc3ccc(Cl)c(Cl)c3)ncnc2s1,60.6 µM
5,C#Cc1cccc(Nc2ncnc3cc(OCCOC)c(OCCOC)cc23)c1 [ERLOTINIB],11.7 µM
6,COc1ccc(/C=C/C(=O)Nc2cc3c(Nc4ccc(Cl)c(Cl)c4)ncnc3s2)cc1,20.1 µM
7,O=C(/C=C/c1ccccc1)Nc1cc2c(Nc3cc(Cl)cc(Cl)c3)ncnc2s1,5.8 µM

# System: A549
# Assay: Antiproliferative activity against human A549 cells incubated for 48 hrs by MTT assay
# Type: functional, cell-based
# Details: A549, 48 h
row,SMILES,IC50
1,C#Cc1cccc(Nc2ncnc3cc(NC(=O)/C=C/c4ccccc4)sc23)c1,26.2 µM
2,O=C(/C=C/c1ccccc1)Nc1cc2ncnc(Nc3ccc(F)c(Cl)c3)c2s1,6.67 µM
3,O=C(/C=C/c1ccccc1)Nc1cc2ncnc(Nc3ccc(Cl)c(Cl)c3)c2s1,19.4 µM
4,O=C(/C=C/c1ccc(O)cc1)Nc1cc2c(Nc3ccc(Cl)c(Cl)c3)ncnc2s1,34.3 µM
5,C#Cc1cccc(Nc2ncnc3cc(OCCOC)c(OCCOC)cc23)c1 [ERLOTINIB],3.8 µM
6,COc1ccc(/C=C/C(=O)Nc2cc3c(Nc4ccc(Cl)c(Cl)c4)ncnc3s2)cc1,3.32 µM
7,O=C(/C=C/c1ccccc1)Nc1cc2c(Nc3cc(Cl)cc(Cl)c3)ncnc2s1,0.04 µM

# System: MRC5
# Assay: Cytotoxicity against human MRC5 cells incubated for 48 hrs by MTT assay
# Type: cell-based
# Details: MRC5, 48 h
row,SMILES,IC50
1,COc1ccc(/C=C/C(=O)Nc2cc3c(Nc4ccc(Cl)c(Cl)c4)ncnc3s2)cc1,18.7 µM
2,O=C(/C=C/c1ccccc1)Nc1cc2c(Nc3cc(Cl)cc(Cl)c3)ncnc2s1,28.8 µM

# Biological target: Epidermal growth factor receptor (Homo sapiens) (UniProt P00533)
# Assay: Inhibition of EGFR in human HeLa cells assessed as reduction in ERK 1/2 phosphorylation at IC50 concentration measured upto 48 hrs by Western blot analysis
# Type: cell-based
# Details: not given
# Epidermal growth factor receptor (Homo sapiens), sequence (P00533 whole entry): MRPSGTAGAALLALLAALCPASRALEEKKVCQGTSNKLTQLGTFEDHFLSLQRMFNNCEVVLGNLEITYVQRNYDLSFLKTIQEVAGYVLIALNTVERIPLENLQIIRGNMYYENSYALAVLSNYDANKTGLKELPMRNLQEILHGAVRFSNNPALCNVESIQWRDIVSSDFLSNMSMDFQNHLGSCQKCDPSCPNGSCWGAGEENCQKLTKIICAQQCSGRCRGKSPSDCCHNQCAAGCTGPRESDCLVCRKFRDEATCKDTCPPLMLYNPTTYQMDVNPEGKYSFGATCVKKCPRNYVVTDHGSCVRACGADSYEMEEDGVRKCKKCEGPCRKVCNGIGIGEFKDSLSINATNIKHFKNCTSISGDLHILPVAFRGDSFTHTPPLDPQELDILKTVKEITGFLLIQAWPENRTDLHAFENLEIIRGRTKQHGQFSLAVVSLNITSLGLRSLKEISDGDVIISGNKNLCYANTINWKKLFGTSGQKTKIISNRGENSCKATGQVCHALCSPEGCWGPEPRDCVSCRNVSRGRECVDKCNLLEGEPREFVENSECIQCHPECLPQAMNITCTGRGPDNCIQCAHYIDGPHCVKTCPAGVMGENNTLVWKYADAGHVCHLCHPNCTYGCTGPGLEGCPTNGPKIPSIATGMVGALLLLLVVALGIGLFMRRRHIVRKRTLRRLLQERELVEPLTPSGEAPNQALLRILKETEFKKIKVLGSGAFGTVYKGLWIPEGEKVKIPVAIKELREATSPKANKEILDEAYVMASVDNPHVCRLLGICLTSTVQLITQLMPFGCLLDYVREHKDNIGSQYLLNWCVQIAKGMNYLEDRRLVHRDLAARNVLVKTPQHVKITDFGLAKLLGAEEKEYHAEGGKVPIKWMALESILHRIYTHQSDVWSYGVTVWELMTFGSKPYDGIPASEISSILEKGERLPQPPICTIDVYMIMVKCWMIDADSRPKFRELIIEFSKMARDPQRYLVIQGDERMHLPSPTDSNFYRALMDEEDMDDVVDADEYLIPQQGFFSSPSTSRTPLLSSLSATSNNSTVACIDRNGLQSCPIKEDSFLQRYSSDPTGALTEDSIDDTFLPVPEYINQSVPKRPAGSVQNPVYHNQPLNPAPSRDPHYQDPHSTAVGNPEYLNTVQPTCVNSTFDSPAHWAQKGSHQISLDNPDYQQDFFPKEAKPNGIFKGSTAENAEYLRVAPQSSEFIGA
row,SMILES,inhibition
1,O=C(/C=C/c1ccccc1)Nc1cc2c(Nc3cc(Cl)cc(Cl)c3)ncnc2s1,Active

# Biological target: Epidermal growth factor receptor (Homo sapiens) (UniProt P00533)
# Assay: Inhibition of EGFR phosphorylation in human HeLa cells at IC50 concentration measured upto 48 hrs by Western blot analysis
# Type: cell-based
# Details: not given
row,SMILES,inhibition
1,O=C(/C=C/c1ccccc1)Nc1cc2c(Nc3cc(Cl)cc(Cl)c3)ncnc2s1,Active

# System: HeLa
# Assay: Induction of apoptosis in human HeLa cells assessed as necrotic cells after 48 hrs by AnnexinV-APC/propidium iodide staining based FACScalibur flow cytometry analysis (reference value: 0.457 %)
# Type: functional
# Details: not given
row,SMILES,Activity
1,C#Cc1cccc(Nc2ncnc3cc(OCCOC)c(OCCOC)cc23)c1 [ERLOTINIB],6.06%

# System: HeLa
# Assay: Induction of apoptosis in human HeLa cells assessed as live cells after 48 hrs by AnnexinV-APC/propidium iodide staining based FACScalibur flow cytometry analysis (reference value: 92 %)
# Type: functional
# Details: not given
row,SMILES,Activity
1,C#Cc1cccc(Nc2ncnc3cc(OCCOC)c(OCCOC)cc23)c1 [ERLOTINIB],52.7%

# System: HeLa
# Assay: Induction of apoptosis in human HeLa cells assessed as late apoptotic cells at IC50 concentration after 48 hrs by AnnexinV-APC/propidium iodide staining based FACScalibur flow cytometry analysis (reference value: 4.30 %)
# Type: functional
# Details: not given
row,SMILES,Activity
1,COc1ccc(/C=C/C(=O)Nc2cc3c(Nc4ccc(Cl)c(Cl)c4)ncnc3s2)cc1,15.5%
2,O=C(/C=C/c1ccccc1)Nc1cc2c(Nc3cc(Cl)cc(Cl)c3)ncnc2s1,11%

# System: not listed separately
# Assay: Selectivity index, ratio of IC50 for human MRC5 to IC50 for human A549
# Type: toxicity
# Details: MRC5 cells and A549 cells, read-out: Ratio IC50
row,SMILES,selectivity ratio
1,COc1ccc(/C=C/C(=O)Nc2cc3c(Nc4ccc(Cl)c(Cl)c4)ncnc3s2)cc1,5.6
2,O=C(/C=C/c1ccccc1)Nc1cc2c(Nc3cc(Cl)cc(Cl)c3)ncnc2s1,720

# Biological target: Epidermal growth factor receptor (Homo sapiens) (UniProt P00533)
# Assay: Inhibition of EGFR in human HeLa cells assessed as effect on AKT phosphorylation at IC50 concentration measured upto 48 hrs by Western blot analysis
# Type: cell-based
# Details: not given
row,SMILES,inhibition
1,O=C(/C=C/c1ccccc1)Nc1cc2c(Nc3cc(Cl)cc(Cl)c3)ncnc2s1,inactive

# System: PC-3
# Assay: Antiproliferative activity against human PC3 cells incubated for 48 hrs by MTT assay
# Type: functional, cell-based
# Details: PC-3, 48 h
row,SMILES,IC50
1,C#Cc1cccc(Nc2ncnc3cc(NC(=O)/C=C/c4ccccc4)sc23)c1,0.7 µM
2,O=C(/C=C/c1ccccc1)Nc1cc2ncnc(Nc3ccc(F)c(Cl)c3)c2s1,0.2 µM
3,O=C(/C=C/c1ccccc1)Nc1cc2ncnc(Nc3ccc(Cl)c(Cl)c3)c2s1,0.26 µM
4,O=C(/C=C/c1ccc(O)cc1)Nc1cc2c(Nc3ccc(Cl)c(Cl)c3)ncnc2s1,0.3 µM
5,C#Cc1cccc(Nc2ncnc3cc(OCCOC)c(OCCOC)cc23)c1 [ERLOTINIB],7 µM
6,COc1ccc(/C=C/C(=O)Nc2cc3c(Nc4ccc(Cl)c(Cl)c4)ncnc3s2)cc1,0.79 µM
7,O=C(/C=C/c1ccccc1)Nc1cc2c(Nc3cc(Cl)cc(Cl)c3)ncnc2s1,0.39 µM

# System: HeLa
# Assay: Induction of apoptosis in human HeLa cells assessed as early apoptotic cells after 48 hrs by AnnexinV-APC/propidium iodide staining based FACScalibur flow cytometry analysis (reference value: 3.23 %)
# Type: functional
# Details: not given
row,SMILES,Activity
1,C#Cc1cccc(Nc2ncnc3cc(OCCOC)c(OCCOC)cc23)c1 [ERLOTINIB],26.2%

# System: HeLa
# Assay: Induction of apoptosis in human HeLa cells assessed as necrotic cells at IC50 concentration after 48 hrs by AnnexinV-APC/propidium iodide staining based FACScalibur flow cytometry analysis (reference value: 0.457 %)
# Type: functional
# Details: not given
row,SMILES,Activity
1,COc1ccc(/C=C/C(=O)Nc2cc3c(Nc4ccc(Cl)c(Cl)c4)ncnc3s2)cc1,2%
2,O=C(/C=C/c1ccccc1)Nc1cc2c(Nc3cc(Cl)cc(Cl)c3)ncnc2s1,0.448%

# System: HeLa
# Assay: Induction of apoptosis in human HeLa cells assessed as live cells at IC50 concentration after 48 hrs by AnnexinV-APC/propidium iodide staining based FACScalibur flow cytometry analysis (reference value: 92 %)
# Type: functional
# Details: not given
row,SMILES,Activity
1,COc1ccc(/C=C/C(=O)Nc2cc3c(Nc4ccc(Cl)c(Cl)c4)ncnc3s2)cc1,66.8%
2,O=C(/C=C/c1ccccc1)Nc1cc2c(Nc3cc(Cl)cc(Cl)c3)ncnc2s1,45.8%
